The record followed here is US8188149B2, “Use of R(+)-N-propargy1-1-aminoindan to treat or prevent hearing loss” (Teva Pharmaceutical Industries, Ltd., priority 2007, dated 2012).

In test [1] the test system is neomycin-induced hearing loss. The conditions noted are these: guinea pigs. How it is done:
Guinea pigs weighing 250-300 g were used in all experiments. All interventions (including ABR measurements and intratympanic treatments) are performed under general anesthesia using i.p. injection of a cocktail of Ketamine and Xylazine.
A loudspeaker is placed in each ear and the ABR responses were detected by four surface electrodes. These electrodes are placed two in the mastoid region and one in vertex as positive and fourth electrode was placed on forehead as the ground electrode. Calibrated acoustic signals are obtained to evoke brainstem response. The visual detection threshold is determined by decrement sound pressure in 5 dB steps. The evoked responses are then filtered and averaged with 500 sweeps using a signal processor. All ABR tests are performed bilaterally and baseline Peak Equivalent Sound Pressure Levels (PESPLs) are obtained in terms of decibel (dB). All animals undergo baseline hearing test (ABR) before any kind of treatment in order to rule out previous hearing loss. Control ABR threshold measurements are compared to pretreatment values. Auditory threshold shift is subjected to statistical analysis, statistical significance is determined.
A fine needle is used for myringotomy and drugs are delivered through the same needle. The whole middle ear is filled until the fluid can be seen in the external auditory canal. […] Concentration is calculated using this volume. […]

The subject of test [2] is dopamine release from the guinea pig cochlea preparation. How it is done: The bulla tympani of a male guinea pig (weighing 150-350 g) was opened. The bony capsule of the cochlea was removed under stereomicroscopic guidance and the stria vascularis was stripped and the cochlea was fractured at the basis of the modiolus. The preparation contained the ganglion spirale, the afferent auditory fibers, the axons and axon terminals of the efferent bundles and both the inner and outer hair cells. All experiments were carried out in a perilimph-like solution, which contained […], 3.5 mM KCl, 1 mM CaCl2, 1 mM MgCl2, 2.75 mM HEPES and 2.25 mM Tris-OH at the temperature of 37° C. and pH 7.4. The osmolality was set by D-glucose and continuously saturated by 100% O2.
The cochleae were incubated with 0.2 μM [3H]dopamine (Amersham, UK, spec. act.: 31.0 Ci/mmol, 6 μCi in 1 ml) for 35 min. Each cochlea was then placed in a microvolume plexi chamber and superfused at 3 ml/min with perilymph-like solution. After 1 hour pre-perfusion the outflow was collected into 3 min-fractions. The released activity was determined by assaying […] of each sample with liquid scintillation spectrometry (Packard Tri-Carb 1900TR). After collecting samples for 57 minutes (19 fractions) each cochlea was transferred from the microchambers to 500 μl of 10% trichloroacetic acid for one day and 100 μl was assayed for tissue radioactivity. […] Electrical field stimulation was applied for one fraction period (3 min, 360 pulses) at 60 V, 2 Hz and 0.5 ms duration at the 3rd and 13th fractions. The pulses were delivered by a Grass S88 stimulator (West Warwick, USA) through platinum electrodes at the top and bottom of the tissue chamber.
To best describe the release of dopamine during one collecting period, the fractional release (FR) of the tritium-outflow was determined as the percentage of total radioactivity present in the tissue at the time of sample collection. The fractional release evoked by field stimulations (S1 and S2) was calculated by the area-under-the-curve, i.e., by subtracting the mean of the basal release from the total fractional release during the electrical stimulation (Halmos G, Gáborján A, Lendvai B, Répássy G, Z Szabó L, Vizi E S, (2000) Veratridine-evoked release of dopamine from guinea pig isolated cochlea. Hear Res 144: 89-96, Halmos G, Lendvai B, Gáborján A, Baranyi M, Z Szabó L, Csokonai Vitéz L, (2002) Simultaneous measurement of glutamate and dopamine release from isolated guinea pig cochlea. Neurochem Int 40: 243-248). The effects of drugs on the field stimulation-evoked [^3H]dopamine release were expressed by the calculated ratio of FRS2 over FRS1, in the presence and in the absence of the drug, respectively. The effect of drugs on the resting outflow of tritium was determined as the ratio of the sum of the two highest consecutive resting FR values in the presence of the drug and before the drug reached the cochleae (FRR2/FRR1). Data are expressed as the means±S.E.M. ANOVA was used for statistical analysis. Tukey post-hoc test was applied to determine the significance of pair wise comparisons.

The subject of test [3] is neomycin-induced hearing loss. The conditions noted are these: mice. How it is done: Left ears were left for vehicle control (NaCl injection). […] Click stimulations to the ear including various frequencies were used to evoke the auditory response in the brainstem that was measured by multiple electrodes placed on the head of the animal.

Structures are written as SMILES. Read-outs that look alike come from different tables or passages of the source.

Turning to `C#CCN[C@@H]1CCc2ccccc21` [Rasagiline, R(+)-N-propargyl-1-aminoindan], the entries for the “hearing threshold compared to threshold prior to neomycine treatment” value in test [1] (Rasagiline intratympanically together with neomycine) and in test [3] (0.5 mg Rasagiline intratympanically together with neomycine) were “remains unchanged” and “remained unchanged”, respectively. Besides, the “protection against ototoxic effect of neomycine” value is given as “can not prevent” in test [1] (intraperitoneally on day of neomycine treatment and next three days); “could not prevent” in test [3] (intraperitoneally 50 mg/kg daily, day of neomycine treatment and next three days). In addition, the “field stimulation-evoked dopamine release (FRS2/FRS1)” value in test [2] (100 μM Rasagiline) and in test [2] (300 μM Rasagiline) was “increase was significant” throughout. In addition, the “evoked dopamine release, all timing groups vs control” value in test [2] (100 μM, 3-21 min perfusion) was “significant enhancement”. For the same compound, the “resting release of dopamine (FRR2/FRR1)” value in test [2] (100 μM, longest duration, 21 minutes prior to stimulation) is reported as “failed to induce significant differences”. In test [2] (1-300 μM, FIG. 2), the “effect on dopamine release, concentration dependence” value was “concentration dependent”. Besides, the “cochlear DA release” value in test [2] (higher doses (of 1, 10, 100, 300 μM), added 15 min prior to second field stimulation) is “elevate”. In addition, in test [2] (low concentration (of 1, 10, 100, 300 μM), added 15 min prior to second field stimulation), the cochlear dopamine release result was “did not change”.
